According to US8163909B2, “Substituted hydroxyethyl amine compounds as beta-secretase modulators and methods of use” (Amgen Inc., priority 2007, dated 2012):
Like-named read-outs stand apart in the source and are kept apart here.

Columns and labels:
[1] = target: Beta Secretase enzyme (BACE) (Homo sapiens, UniProt P56817); assay: In vitro enzymatic BACE FRET (fluorescence resonance energy transfer) assay; type: biochemical;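 also: fluorescence read after 1 h with 50 nM quenched peptide substrate spanning the BACE cleavage site, in pH 4.2 acetate buffer containing 10% DMSO and nonionic detergent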
[2] = system: Aβ40 in conditioned medium of cells stably expressing Amyloid Precursor Protein (APP); assay: In vitro BACE cell-based assay (Aβ40 in conditioned medium, sandwich ELISA); details: Homo sapiens;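 also: compounds added as a dilution series, secreted peptide quantified by europium time-resolved fluorescence readout, potency fitted from percent of control versus compound concentration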
CYP3A4 (CYP3A) = CYP3A4 (CYP3A) (Homo sapiens, UniProt P08684); assay: in vitro; details: microsomes, pH 7.4;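 also: inhibition of CYP3A-mediated 1-hydroxymidazolam formation after 10 min incubation with NADPH, quantified by HPLC MS relative to metabolite produced without test compound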
[3] = Microsomal stability assay, rat liver microsomes;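 also: rat liver microsomes (0.25 mg/mL) with about 1 µM compound plus 1 mM NADPH, pH 7.4, 37 °C for 30 min, parent left measured by LC-MS/MS against 0 min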
[4] = Microsomal stability assay, human liver microsomes;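 also: pooled human liver microsomes at 0.25 mg/mL with 1 µM compound and NADPH at 37 °C, pH 7.4, for 30 min, unchanged parent quantified by LC-MS/MS against the 0 min sample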
CYP2D6 = CYP2D6 (Homo sapiens, UniProt P10635); assay: CYP2D6 inhibition assay (bufuralol, pooled human liver microsomes)
[5] = read-out: BACE1 FRET assay (IC50)
[6] = HEK293, HEK cells, read-out: HEK cell assay (IC50)
[7] = 2D6 IC50, CYP enzyme inhibition
[8] = Table 2, read-out: BACE1 FRET assay
[9] = HEK293, Table 2, HEK cells, read-out: HEK cell assay
[10] = 2D6 IC50 (uM), CYP enzyme inhibition
[11] = HEK293, HEK cell-based assay, IC50's in uM, read-out: HEK cell assay
[12] = BACE enzyme assay, IC50's in uM, read-out: BACE1 FRET assay
[13] = HEK293, cell-based assay, HEK cells, IC50's in uM, read-out: HEK cell assay

Sequence of CYP2D6 (P10635 whole entry): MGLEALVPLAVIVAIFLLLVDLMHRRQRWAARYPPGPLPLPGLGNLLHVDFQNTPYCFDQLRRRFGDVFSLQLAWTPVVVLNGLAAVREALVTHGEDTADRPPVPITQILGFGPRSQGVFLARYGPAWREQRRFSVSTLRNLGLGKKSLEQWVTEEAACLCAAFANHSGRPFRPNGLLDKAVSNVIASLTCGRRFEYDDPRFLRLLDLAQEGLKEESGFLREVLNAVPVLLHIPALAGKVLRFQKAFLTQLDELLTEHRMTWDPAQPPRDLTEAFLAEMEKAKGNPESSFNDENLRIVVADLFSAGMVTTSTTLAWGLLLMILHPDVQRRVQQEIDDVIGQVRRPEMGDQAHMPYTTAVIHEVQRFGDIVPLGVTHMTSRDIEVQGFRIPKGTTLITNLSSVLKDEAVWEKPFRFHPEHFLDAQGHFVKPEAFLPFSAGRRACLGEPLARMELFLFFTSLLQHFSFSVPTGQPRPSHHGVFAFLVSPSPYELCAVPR
Sequence of CYP3A4 (CYP3A) (P08684 2-503): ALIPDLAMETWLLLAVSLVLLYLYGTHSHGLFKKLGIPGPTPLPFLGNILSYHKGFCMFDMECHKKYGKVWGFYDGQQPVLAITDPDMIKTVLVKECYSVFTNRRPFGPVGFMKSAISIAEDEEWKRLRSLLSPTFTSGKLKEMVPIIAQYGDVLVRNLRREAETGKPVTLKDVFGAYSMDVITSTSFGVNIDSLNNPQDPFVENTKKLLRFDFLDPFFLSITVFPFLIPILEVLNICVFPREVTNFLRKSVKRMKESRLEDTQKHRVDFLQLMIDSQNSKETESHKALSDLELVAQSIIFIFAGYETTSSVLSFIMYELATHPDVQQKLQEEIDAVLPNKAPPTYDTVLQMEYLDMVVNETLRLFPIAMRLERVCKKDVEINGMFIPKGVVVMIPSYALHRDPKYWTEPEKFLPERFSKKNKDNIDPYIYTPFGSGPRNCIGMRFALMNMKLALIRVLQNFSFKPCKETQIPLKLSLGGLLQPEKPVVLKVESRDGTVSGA
Sequence of Beta Secretase enzyme (BACE) (P56817 46-501): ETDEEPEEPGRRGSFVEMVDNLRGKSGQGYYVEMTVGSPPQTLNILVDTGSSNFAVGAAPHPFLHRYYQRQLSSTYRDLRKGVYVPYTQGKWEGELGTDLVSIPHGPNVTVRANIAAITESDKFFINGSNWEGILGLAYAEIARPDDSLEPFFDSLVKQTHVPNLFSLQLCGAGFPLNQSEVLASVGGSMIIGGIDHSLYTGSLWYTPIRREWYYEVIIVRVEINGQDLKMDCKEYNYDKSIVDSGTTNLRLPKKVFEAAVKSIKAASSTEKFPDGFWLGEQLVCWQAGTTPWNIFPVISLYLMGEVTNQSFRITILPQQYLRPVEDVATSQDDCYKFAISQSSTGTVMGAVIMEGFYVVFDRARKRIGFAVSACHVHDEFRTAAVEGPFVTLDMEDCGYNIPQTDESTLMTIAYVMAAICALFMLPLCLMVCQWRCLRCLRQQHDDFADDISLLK

| SMILES | IC50 [1, 5] [µM] | IC50 [2, 6] [µM] | IC50 (CYP3A4 (CYP3A)) [nM] | RLM ([3]; rat liver microsomes) [µL/min/mg] | HLM ([4]; human liver microsomes) [µL/min/mg] | IC50 (CYP2D6; 2D6 IC50, CYP2D6 inhibition) [µM] | RLM ([3]; rat liver microsomal data) [µL/min/mg] | HLM ([4]; human liver microsomal data) [µL/min/mg] | IC50 (CYP2D6; [7]) [µM] | further results |
| --- | --- | --- | --- | --- | --- | --- | --- | --- | --- | --- |
| CC(=O)N[C@@H](Cc1ccc(F)c(-c2ccco2)c1)[C@H](O)CN[C@H]1CC2(CCC2)Oc2ccc(CC(C)(C)C)cc21 [Example 432, N-((2S,3R)-4-((S)-2,2-spirocyclobutyl-6-neopentyl-3,4-dihydro-2H-chromen-4-ylamino)-1-(4-fluoro-3-(furan-2-yl)phenyl)-3-hydroxybutan-2-yl)acetamide] | 0.006 | 0.332 | 1500 | 323 | 280 | 3.1 |  |  |  |  |
| CC1(C)C[C@H]1c1cnc2c(c1)[C@@H](NC[C@@H](O)[C@H](Cc1cccc(-c3nccs3)c1)NC(=O)[C@@H]1CCCO1)CC1(CCC1)O2 [compound 907] |  |  | 100 |  |  |  | 78 | 77 | 0.5 |  |
| COCC(=O)N[C@@H](Cc1ccc2c(c1)OCO2)[C@@H](CN[C@H]1CC2(CCC2)Oc2ncc([C@H](F)C(C)(C)C)cc21)OC [compound 447] |  |  | 14000 |  |  |  |  |  | 14 | IC50 [1, 8]: 2.64 µM; IC50 [2, 9]: 3.99 µM |
| CO[C@H](C)C(=O)N[C@@H](Cc1cccc(-c2nccs2)c1)[C@H](O)CN[C@H]1CC2(CCC2)Oc2ncc([C@@H]3CC3(C)C)cc21 [compound 905] |  |  | 200 |  |  |  | 71 | 60 | 0.9 |  |
| CCCc1cnc2c(c1)[C@@H](NC[C@H](O)[C@@H](Cc1cc(F)cc(-c3nccs3)c1)NC(=O)[C@@H](C)OC)CC1(CCC1)O2 [compound 815] |  |  | 200 |  |  |  | 276 | 204 |  | IC50 (CYP2D6; [10]): 0.6 µM |
| CC(C)(C)Cc1cnc2c(c1)[C@@H](NC[C@@H](O)[C@H](Cc1cccc(C#N)c1)NC(=O)c1ncccc1F)CC1(CC(F)(F)C1)O2 [compound 473] |  |  | 600 |  |  |  | 775 |  | 2.4 | IC50 [1, 8]: 0.009 µM; IC50 [2, 9]: 0.063 µM |
| CCCc1cnc2c(c1)[C@@H](NC[C@H](O)[C@@H](Cc1cc(F)cc(-c3nccs3)c1)NC(=O)COC)CC1(CCC1)O2 [compound 833] |  |  | 300 |  |  |  | 189 | 219 |  | IC50 [2, 11]: 2.28 µM; IC50 (CYP2D6; [10]): 0.9 µM |
| CC1(C)C[C@H]1c1cnc2c(c1)[C@@H](NC[C@@H](O)[C@H](Cc1cccc(-c3nccs3)c1)NC(=O)[C@H]1CCCO1)CC1(CCC1)O2 [compound 906] |  |  | 100 |  |  |  | 63 | 94 | 0.4 |  |
| C#Cc1ccc(C[C@H](NC(=O)[C@@H](C)OC)[C@H](O)CN[C@H]2CC3(CCC3)Oc3ncc(CC(C)(C)C)cc32)cc1 [compound 884] |  |  | 100 |  |  |  | 55 |  | 3.8 | IC50 [1, 12]: 0.251 µM; IC50 [2, 13]: 0.097 µM |
| COCC(=O)N[C@@H](Cc1cccc(F)c1)[C@H](O)CN[C@H]1CC2(CCC2)Oc2c(-c3ccncc3)cc(CC(C)(C)Cl)cc21 [compound 536] |  |  | ≥ 27000 |  |  |  |  |  |  | IC50 ([1]; BACE enzyme assay, read-out: BACE1 FRET assay): 0.019 µM; IC50 ([2]; HEK293, HEK cells, read-out: HEK cell assay): 0.011 µM; IC50 (CYP2D6; [10]): ≥ 27 µM |
| COCC(=O)N[C@@H](Cc1ccc(F)cc1)[C@H](O)CN[C@H]1CC2(CCNC2)Oc2cnc(CC(C)(C)C)cc21 (some centres unmarked) [compound 696] |  |  | 2900 | 44 | 32 |  |  |  |  | IC50 ([2]; HEK293, HEK cell-based assay IC50, read-out: HEK cell assay): 0.778 µM; IC50 (CYP2D6; 2D6 IC50 (uM), CYP2D6 inhibition): ≥ 27 µM |
| CC(=O)N[C@@H](Cc1cccc(-n2ccnc2)c1)[C@H](O)CN[C@H]1CC2(CCC2)Oc2ccc(CC(C)(C)C)cc21 [compound 659] | 0.076 | 0.024 |  | 413 | 706 | 0.2 |  |  |  |  |
| COCC(=O)N[C@@H](Cc1cccc(C#N)c1)[C@H](O)CN[C@H]1CC2(CCC2)Oc2c(-c3ccncc3)cc(CC(C)C)cc21 [compound 619] | 0.012 | 0.006 |  | 85 | 35 | 1.5 |  |  |  |  |
| COC(OC)C(=O)N[C@@H](Cc1ccc(F)cc1)[C@H](O)CN[C@H]1CC2(CCC2)Oc2ncc(CC(C)(C)C)cc21 [compound 591] | 0.01 | 0.018 | 600 | 375 |  | 10.3 |  |  |  |  |
| CC(C)(C)Cc1cnc2c(c1)[C@@H](NC[C@@H](O)[C@H](Cc1ccc(F)cc1)NC(=O)[C@@H]1CN(Cc3cncs3)CCO1)CC1(CCC1)O2 [compound 788] |  |  |  |  |  |  | 157 | 267 |  | IC50 [1, 12]: 0.016 µM; IC50 [2, 11]: 0.013 µM; IC50 (CYP2D6; [10]): 0.6 µM |
| CC(=O)N[C@@H](Cc1cc(F)cc(F)c1)[C@H](O)CN[C@H]1CC2(CCC2)Oc2c1cc(CC(C)(C)C)nc2Nc1ccccc1 [compound 598] | 0.023 | 0.26 | 6900 | 102 |  | ≥ 27 |  |  |  |  |
| CC(C)Cc1cnc2c(c1)[C@@H](NC[C@H](O)[C@@H](Cc1cccc(-c3nccs3)c1)NC(=O)[C@@H]1CCCO1)CC1(CCC1)O2 [compound 796] |  |  | 200 |  |  |  | 58 | 126 |  | IC50 [2, 11]: 0.663 µM; IC50 (CYP2D6; [10]): 0.6 µM |
| CC(C)(C)Cc1cnc2c(c1)[C@@H](NC[C@@H](O)[C@H](Cc1ccc3c(c1)OCO3)NC(=O)C(C)(C)C)CC1(CCC1)O2 [compound 882] |  |  |  |  |  |  | 103 | 40 | 0.5 | IC50 [1, 12]: 6.25 µM; IC50 [2, 13]: 2.58 µM |
| COCC(=O)N[C@@H](Cc1ccc(F)cc1)[C@H](O)CN[C@H]1CC2(CCC2)Oc2c(-c3ccncc3)cc(CC(C)C)cc21 [compound 605] | 0.014 | 0.016 |  | 71 | 73 | 2.3 |  |  |  |  |
| COCC(=O)N[C@@H](Cc1ccc(F)cc1)[C@H](O)CN[C@H]1CC2(CCC2)Oc2c1cc(CC(C)(C)C)nc2-n1ccnc1 [compound 448] |  |  | 100 |  |  |  | 79 |  | 1.8 | IC50 [1, 8]: 0.106 µM; IC50 [2, 9]: 0.153 µM |
| CO[C@H](C)C(=O)N[C@@H](Cc1cc(F)cc(F)c1)[C@H](O)CN[C@H]1CC2(CCC2)Oc2c(-c3ccncc3)cc(CC(C)(C)F)cc21 [compound 590] | 0.024 | 0.007 |  | 105 | 60 | 0.6 |  |  |  |  |
| CO[C@H](C)C(=O)N[C@@H](Cc1cccc(C#N)c1)[C@H](O)CN[C@H]1CC2(CCC2)Oc2c(-c3ccncc3)cc(CC(C)C)cc21 [compound 620] | 0.01 | 0.005 |  | 105 | 48 | 1.9 |  |  |  |  |
| C#Cc1cccc(C[C@H](NC(=O)COC)[C@H](O)CN[C@H]2C[C@@]3(CCOC3)Oc3ncc(CC(C)(C)C)cc32)c1 [compound 869, N-((1S,2R)-3-(((3S,4′S)-6′-(2,2-dimethylpropyl)-3′,4,4′,5-tetrahydrospiro[furan-3,2′-pyrano[2,3-b]pyridin]-4′-yl)amino)-1-(3-ethynylbenzyl)-2-hydroxypropyl)-2-methoxyacetamide] |  |  |  |  |  |  | 55 | 21 | 9.5 | IC50 [1, 12]: 0.006 µM; IC50 [2, 13]: 0.01 µM |
| CO[C@H](C)C(=O)N[C@H](Cc1cc(F)cc(-c2nccs2)c1)[C@@H](O)CN[C@H]1CC2(CCC2)Oc2ncc(Br)cc21 [compound 821] |  |  | 300 |  |  |  | 243 | 162 |  | IC50 [2, 11]: 0.558 µM; IC50 (CYP2D6; [10]): 0.5 µM |
| CO[C@H](C)C(=O)N[C@@H](Cc1ccccc1)[C@H](O)CN[C@H]1CC2(CCC2)Oc2c(-c3ccncc3)cc(CC(C)C)cc21 [compound 604] | 0.018 | 0.013 |  | 215 | 89 | 2.7 |  |  |  |  |
| COCC(=O)N[C@@H](Cc1cccc(C(C)=O)c1)[C@H](O)CN[C@H]1CC2(CCC2)Oc2ncc(CC(C)(C)C)cc21 [compound 872] |  |  |  |  |  |  | 278 | 382 | 5.7 | IC50 [1, 12]: 0.007 µM; IC50 [2, 13]: 0.009 µM |
| COCC(=O)N[C@@H](Cc1cc(F)cc(F)c1)[C@H](O)CN[C@H]1CC2(CCC2)Oc2c(-c3nccn3C)cc(CC(C)C)cc21 [compound 630] | 0.021 | 0.003 |  | 220 | 37 | 4 |  |  |  |  |
| C#Cc1cc(C#C)cc(C[C@H](NC(=O)COC)[C@H](O)CN[C@H]2CC3(CCC3)Oc3ncc(CC(C)(C)C)cc32)c1 [compound 858] |  |  |  |  |  |  | 88 | 90 | 1.1 | IC50 [1, 12]: 0.005 µM; IC50 [2, 13]: 0.147 µM |
| COCC(=O)N[C@@H](Cc1ccc(F)cc1)[C@H](O)CN[C@@H]1CC2(CCC2)Oc2c1cc(CC(C)(C)C)nc2-n1ccnc1 [compound 449] |  |  | 100 |  |  |  | 163 |  | 0.8 | IC50 [1, 8]: 2.9 µM; IC50 [2, 9]: 2.97 µM |
